Measurements published in patent publication US20180000771A1, “AGENT FOR PREVENTING AND/OR TREATING AMYOTROPHIC LATERAL SCLEROSIS” (KYOTO UNIVERSITY, priority 2015, published 2018).

Key:
[1] = test system: motoneuron cells derived from iPS cells having SOD1-L144FVX mutation; conditions: 168 h
[2] = test system: motoneuron cells derived from iPS cells of ALS patients having C9orf72 mutation; experiment: survival of motoneuron cells induced from ALS patient iPS cells (C9orf72 mutation); assay type: cell-based, human; conditions: added on day 7, survived motoneuron cells counted on day 14
[3] = test system: motoneuron cells derived from iPS cells of sporadic ALS patients; experiment: survival of motoneuron cells induced from sporadic ALS patient iPS cells; assay type: cell-based, human
[4] = test system: nerve cell derived from iPS cell having SOD1-L144FVX mutation; experiment: neurite length of nerve cells derived from iPS cells; assay type: cell-based, human; conditions: 1 μM, cultured for 48 hr
Procedure: In detail, small clumps (diameter 40-100 μm) of iPS cell colonies were subjected to a filter treatment with Cell Strainer (BD Falcon), and cultured for 10 days in N2B27 medium [DMEM/F12, Neurobasal, N2 supplement, B27 supplement, L-Gln] added with 100 ng/ml human recombinant Noggin (R&D systems) and 1 μM SB431542 (Sigma) in a culture dish coated with poly-L-lysine (Sigma)/Laminin (BD Falcon) (PLL/LM). Then, the colonies were dissociated into small clumps with 200 U/ml collagenase added with CaCl2, and transferred into a culture dish coated with PLL/ECL (Millipore). After 7 days of culture, the cells were dissociated with Accutase (Innovative Cell Technologies), and cultured in a culture dish coated with PLL/ECL for 7 days (24 d). Finally, the cells dissociated with Accutase and selected by a 40 μm cell strainer (BD Falcon) were counted, cultured for 31 days (56d) in N2B27 medium added with 10 ng/ml BDNF, GDNF, and NT-3 (R&D systems) in a culture dish coated with PLL/LM/Fibronectin (Millipore) to give nerve cells from the iPS cells.

[5] = test system: Erk; experiment: Western blot of Erk phosphorylation in nerve cells; assay type: cell-based, human; conditions: 1 μM, nerve cells having SOD1 mutation
Procedure: (§1) It is known that phosphorylation of Erk is promoted in nerve cells having mutation SOD1. To examine the mechanism of these candidate medicaments, phosphorylation of Erk was examined by Western blot method. The Western blot method included dissolving cells in RIPA buffer containing 0.1% SDS, 150 mM NaCl, 1% NP-40, 0.5% deoxycholate, 50 mM Tris-HCl (pH 8.0), protease inhibitor (Roche) and phosphatase inhibitor (Roche), centrifugation, measurement of protein concentration, addition of 20 μg amount of protein to each lane, and electrophoresis in 10-20% polyacrylamide gel. After blotting to Immobilon-P membrane (Millipore), the cells were stained with antibodies against Erk, phosphorylated Erk, c-Abl and phosphorylated c-Abl and detected.

[6] = test system: c-abl; experiment: Western blot of c-abl phosphorylation in nerve cells; assay type: cell-based, human; conditions: 1 μM, nerve cells having SOD1 mutation
Procedure: as §1

[7] = test system: motoneuron cells derived from iPS cells having SOD1-L144FVX mutation; experiment: survival of motoneuron cells induced from ALS patient iPS cells (SOD1 mutation)
[8] = added on day 7, survived motoneuron cells counted on day 14

| SMILES | MN index (motoneuron cell survival number ratio as compared to negative control) [1] | cell survival rate improvement, C9orf72 mutation [2] | cell survival rate improving effect, significance, C9orf72 mutation [2] | efficacy for sporadic ALS (conclusion from Tables 5 and 6) [3] | cell survival rate improvement, sporadic [3, 8] | cell survival rate improving effect, significance, sporadic [3, 8] | length of neuritis [4] | phosphorylation of Erk [5] | phosphorylation of c-abl [6] | efficacy for ALS having SOD1 mutation (conclusion from Tables 5 and 6) [7] | dose correlation in the protection effect on motoneuron cell having SOD1 mutation ([7]; FIG. 2, FIG. 6) | cell survival rate improvement, SOD1 mutation [7, 8] | cell survival rate improving effect, significance, SOD1 mutation [7, 8] |
| --- | --- | --- | --- | --- | --- | --- | --- | --- | --- | --- | --- | --- | --- |
| CN(C)CCCn1cc(C2=C(c3c[nH]c4ccccc34)C(=O)NC2=O)c2ccccc21 [Bisindolyl-maleimide I, Bisindolylmaleimide I] | 7.96 |  |  |  |  |  |  |  |  |  |  |  |  |
| COc1cc2nccc(Oc3ccc(NC(=O)Nc4cc(C)on4)c(Cl)c3)c2cc1OC [Tivozanib] |  | x (cell survival rate improvement less than 20%) | ○ (significant difference (p < 0.05)) | higher efficacy | ○ (cell survival rate improvement not less than 20%) | ○ (significant difference (p < 0.05)) | elongation of neuritis | decreased | decreased | higher efficacy | increase in the effect in a dose-dependent manner | ○ (cell survival rate improvement not less than 20%) | ○ (significant difference (p < 0.05)) |
